Reference: article PMC10112268, “Inhibition of Human Coronaviruses by Combinations of Host-Targeted and Direct-Acting Antivirals” (Antimicrobial Agents and Chemotherapy, 2023)
Where two headings read alike, the source gives them in different places.

Assays:
HCoV-229E-GFP [1] = experiment: Time of addition assay; assay type: cell-based; settings: for IC50: Human coronavirus 229E, 24 hpi
HCoV-OC43 [2] = experiment: Direct virucidal effect on virus particles; settings: 10^5 PFU, 1 h at room temperature; LG 0 to 300 μM, VPA 0 to 300 mM
HCoV-OC43 [3] = assay type: cell-based; settings: at 32 μM LG; no drug 3.2 ± 0.2 × 10^6
SARS-CoV-2 = experiment: Direct virucidal effect on virus particles; settings: 10^5 PFU, 1 h at room temperature; LG 0 to 300 μM, VPA 0 to 300 mM
HCoV-OC43 [4] = experiment: Time of addition assay; assay type: cell-based; settings: for IC50: 48 hpi
in vitro [5] = settings: human, CC50 (MTT assay), Huh-7
HCoV-229E-GFP [6] = experiment: Direct virucidal effect on virus particles; settings: 10^5 PFU, 1 h at room temperature; LG 0 to 300 μM, VPA 0 to 300 mM
TGEV = experiment: Antiviral effect against TGEV in WSL or ST cells, plaque assay on ST; assay type: cell-based, swine coronavirus TGEV; settings: LG in WSL cells, VPA in ST cells
Method: Figure S2. […] The inhibitory effect […]
of LG or VPA was assayed on triplicate cultures of TGEV-infected WSL (wild swine macrophage cell line) or ST (swine testis) cells, respectively. After 1 h-pre-incubation with AVs, triplicate cultures were infected with the corresponding virus, at a MOI of 2 PFU/cell, in a reduced volume of medium containing the AV, for 2h, virus inoculum removed and cells washed twice with medium, before the addition of drug-containing fresh medium (supplemented with 2% FBS). Cultures were then incubated for 24 h at 37 °C; total virus (intracellular and extracellular) production was evaluated by plaque assay on triplicate cultures of ST cells. Left y-axis represents infectious virus progeny at 24 hpi and right y-axis, cell viability determined by MTT assay of each corresponding cell line. IC50 values and SI values […]
[TGEV titers (PFU/ml): 1.1±0.1 x 108 in the absence of the drugs, […]
(1 picture or pasted object on this page, not shown here)

[7] = tested on: HCoV-229E, HCoV-OC43, and SARS-CoV-2; experiment: Antiviral assays, summary over all tested HCoVs; assay type: cell-based, human coronaviruses
[8] = tested on: SARS-CoV-2 isolate MAD6 (Wuhan-Hu-1 strain); experiment: Virus yield inhibition in infected Calu3 2B4 cells, plaque assay on Vero E6; assay type: cell-based
SARS-CoV-2 (MAD6) = experiment: Drug combination (synergy) study, virus yield in Calu3 2B4, CompuSyn; assay type: cell-based
in vitro [9] = settings: human
[10] = long-term toxicity studies in rats and mice; cited from earlier work
[11] = tested on: SARS-CoV-2 isolate 39896362_AG (omicron strain); experiment: microbe, parasite or virus in culture; assay type: cell-based; settings: […], Fig. 1
[12] = tested on: SARS-CoV-2 isolate MAD6 (Wuhan-Hu-1 strain); experiment: Time of addition assay; assay type: cell-based; settings: for IC50: 24 hpi, read-out: IC50, SARS-CoV-2 production
HCoV-229E-GFP [13] = assay type: cell-based; settings: at 16 μM LG; no drug 3.5 ± 0.6 × 10^6
HCoV-229E-GFP [14] = experiment: microbe, parasite or virus in culture; assay type: cell-based; settings: for IC50: Human coronavirus 229E
FMDV = settings: mouse, cited from earlier work
in vitro [15] = settings: African green monkey
in vitro [16] = settings: human, CC50 (MTT assay), HCT-8
HCoV-OC43 [17] = experiment: microbe, parasite or virus in culture; assay type: cell-based

Work on `CCCCCCCCCCCCOC(=O)c1cc(O)c(O)c(O)c1` [LG, lauryl gallate] yielded an IC50 (HCoV-229E-GFP [1]; read-out: IC50, HCoV-229E-GFP production, AV added 0 hpi) of 1.48 µM, an IC50 (HCoV-229E-GFP [1]; read-out: IC50, HCoV-229E-GFP production, AV added 2 hpi) of 2.05 µM and an IC50 (HCoV-229E-GFP [1]; read-out: IC50, HCoV-229E-GFP production, AV added −3 hpi (1 h before adsorption)) of 1.24 µM. The HCoV-229E-GFP average titers (HCoV-229E-GFP [1]; at 40 μM LG, average of addition times, no drug 4 ± 0.6 × 10^6) was 6 ± 2 × 10^2 PFU/mL, the “direct virucidal effect (change in virus titers)” value (HCoV-OC43 [2]) was “No decrease in virus titers” and the HCoV-OC43 titers (HCoV-OC43 [3]) was 2.2 ± 0.2 × 10^3 PFU/mL. For the same compound, the “direct virucidal effect (change in virus titers)” value (SARS-CoV-2) was “No decrease in virus titers”, the IC50 (HCoV-OC43 [4]; Betacoronavirus 1, OC43, read-out: IC50, HCoV-OC43 production, AV added 0 hpi) was 1.92 µM and the IC50 (HCoV-OC43 [4]; Betacoronavirus 1, OC43, read-out: IC50, HCoV-OC43 production, AV added 2 hpi) was 2.97 µM. The IC50 (HCoV-OC43 [4]; Betacoronavirus 1, OC43, read-out: IC50, HCoV-OC43 production, AV added −3 hpi (1 h before adsorption)) was 1.79 µM, the HCoV-OC43 average titers (HCoV-OC43 [4]; at 40 μM LG, average of addition times, no drug 3.5 ± 0.5 × 10^6) was 5 ± 0.01 × 10^1 PFU/mL and the CC50 (in vitro [5]; 24 h cell incubation with AV) was 83.1 µM. For the same compound, the CC50 (in vitro [5]; 48 h cell incubation with AV) was 55 µM, the “direct virucidal effect (change in virus titers)” value (HCoV-229E-GFP [6]) was “No decrease in virus titers” and the “inhibition of TGEV multiplication” value (TGEV) was “inhibited the multiplication”. The “SI values for all tested HCoVs” value [7] was “above 30”, the IC50 ([7]; average over all tested HCoVs, read-out: average IC50 value) was 1.6 µM and the IC50 ([7]; range over tested HCoVs, read-out: IC50 values, range over HCoVs) was 1 to 2 µM. For the same compound, the IC50 ([8]; Severe acute respiratory syndrome coronavirus 2, Calu-3 2B4, read-out: IC50, virus yield, Calu3 2B4, Wuhan-Hu-1 strain, AV from 1 h before adsorption, 24 hpi, Fig. 1) was 2.26 ± 0.5 µM, the SARS-CoV-2 titers ([8]; at 100 μM, Fig. 3, no drug 3.±0.1 × 10^5) was 1 ± 0.1 × 10^2 PFU/mL and the “SARS-CoV-2 isolate MAD6 titers” value ([8]; at LG 100 μM, 24 hpi, no drug 3.4 ± 1 × 10^5, Fig. 1) was 5 ± 0.01 × 10^1 PFU/mL. The SARS-CoV-2 titers (SARS-CoV-2 (MAD6); at 16 μM LG, no drug 3.2 ± 0.2 × 10^5) was 6 ± 0.2 × 10^3 PFU/mL, the “average DRI” value (SARS-CoV-2 (MAD6); for the named drug over its combinations, at Fa = 0.5 to 0.95) was 4.25 and the CC50 (in vitro [9]) was 124 µM. For the same compound, the “highest dose at which no effects were observed” value [10] was 1,000 mg kg-1 of feed, the IC50 ([11]; Severe acute respiratory syndrome coronavirus 2, Vero C1008, Vero E6, omicron strain, AV from 1 h before adsorption, read-out: IC50, virus yield) was 1.36 ± 0.2 µM and the “SARS-CoV-2 isolate 39896362_AG titers” value ([11]; at LG 64 μM, no drug 1 ± 0.1 × 10^5) was 5 ± 0.01 × 10^1 PFU/mL. It also gave an IC50 ([12]; Severe acute respiratory syndrome coronavirus 2, AV added 0 hpi) of 2.9 µM, an IC50 ([12]; Severe acute respiratory syndrome coronavirus 2, AV added 2 hpi) of 3.09 µM and an IC50 ([12]; Severe acute respiratory syndrome coronavirus 2, AV added −2 hpi (1 h before adsorption)) of 2.72 µM. For the same compound, the SARS-CoV-2 average titers ([12]; at 100 μM LG, average of addition times, no drug 3.4 ± 0.2 × 10^5) was 5 ± 0.01 × 10^1 PFU/mL, the HCoV-229E-GFP titers (HCoV-229E-GFP [13]) was 5 ± 0.2 × 10^2 PFU/mL and the “selectivity index (SI=CC50/IC50)” value (HCoV-229E-GFP [14]) was 79.14. For the same compound, the IC50 (HCoV-229E-GFP [14]; Huh-7, read-out: IC50, virus yield, Huh-7, AV from 1 h before adsorption, 24 hpi, Fig. 1) was 1.05 ± 0.3 µM, the IC50 (HCoV-229E-GFP [14]; Huh-7, read-out: IC50, virus yield, specificity experiment (Fig. 3), Huh-7, 24 hpi) was 1.72 µM and the HCoV-229E-GFP titers (HCoV-229E-GFP [14]; at 100 μM, Fig. 3, no drug 4 ± 0.9 × 10^6) was 5 ± 0.2 × 10^2 PFU/mL. For the same compound, the HCoV-229E-GFP titers (HCoV-229E-GFP [14]; at LG 40 μM, 24 hpi, no drug 3 ± 0.5 × 10^6, Fig. 1) was 1.4 ± 0.2 × 10^2 PFU/mL, the “toxicity to the animals” value (FMDV; in vivo) was “not found to be toxic” and the “in vivo antiviral effect against FMDV” value (FMDV) was “reducing FMDV-induced mortality and viral load in mice”. The CC50 (in vitro [15]) was 90.9 µM, the CC50 (in vitro [16]; 24 h cell incubation with AV) was 55 µM and the CC50 (in vitro [16]; 48 h cell incubation with AV) was 50.4 µM. The “selectivity index (SI=CC50/IC50)” value (HCoV-OC43 [17]) was 33.74, the IC50 (HCoV-OC43 [17]; Betacoronavirus 1, OC43, Huh-7, read-out: IC50, virus yield, Huh-7, AV from 1 h before adsorption, 48 hpi, Fig. 1) was 1.63 ± 0.6 µM and the IC50 (HCoV-OC43 [17]; Betacoronavirus 1, OC43, Huh-7, read-out: IC50, virus yield, specificity experiment (Fig. 3), Huh-7, 48 hpi) was 1.14 µM. The HCoV-OC43 titers (HCoV-OC43 [17]; at 100 μM, Fig. 3, no drug 1.8 ± 0.9 × 10^6) was 5 ± 0.01 × 10^1 PFU/mL and the HCoV-OC43 titers (HCoV-OC43 [17]; at LG 40 μM, 48 hpi, no drug 3.1 ± 0.9 × 10^6, Fig. 1) was 5 ± 0.01 × 10^1 PFU/mL.
